Results as given in article PMC8536124 (International Journal of Molecular Sciences, 2021).
Like-named read-outs stand apart in the source and are kept apart here.

Experiments:
UACC-62 = assay: NCI-60 screening (SRB); type: cell-based, human; details: five-dose
HOP-62 = assay: NCI-60 screening (SRB); type: cell-based, human; details: five-dose
CAKI-1 = assay: NCI-60 screening (SRB); type: cell-based, human; details: CAKI-1, five-dose
RPMI-8226 = assay: NCI-60 screening (SRB); type: cell-based, human; details: five-dose
HCC-2998 = assay: NCI-60 screening (SRB); type: cell-based, human; details: five-dose
U251 = assay: NCI-60 screening (SRB); type: cell-based, human
SN12C = assay: NCI-60 screening (SRB); type: cell-based, human; details: five-dose
PC-3 = assay: NCI-60 screening (SRB); type: cell-based, human; details: five-dose
HOP-92 = assay: NCI-60 screening (SRB); type: cell-based, human; details: five-dose
IGROV1 = assay: NCI-60 screening (SRB); type: cell-based, human
SK-MEL-28 = assay: NCI-60 screening (SRB); type: cell-based, human; details: five-dose
SK-MEL-2 = assay: NCI-60 screening (SRB); type: cell-based, human; details: five-dose
OVCAR-5 = assay: NCI-60 screening (SRB); type: cell-based, human; details: five-dose
SK-MEL-5 = assay: NCI-60 screening (SRB); type: cell-based, human
MOLT-4 = assay: NCI-60 screening (SRB); type: cell-based, human; details: five-dose
UACC-257 = assay: NCI-60 screening (SRB); type: cell-based, human; details: five-dose
[1] = test system: NCI-60 cancer cell line panel; assay: NCI-60 screening (SRB), full panel; type: cell-based, human; details: for activity at 10 µM: 60 cell lines, 48 h
Excerpt: (§1) The experimental data allow the assessment of the cytostatic effect, indicated by growth inhibition values ranging between 0 and 100, as well as of the cytotoxic effect, indicated by negative values.
(§2) The mean GI50 (molar concentration of the compound that inhibits 50% net cell growth), TGI (molar concentration of the compound leading to the total inhibition), and LC50 (molar concentration of the compound leading to 50% net cell death (presented in negative logarithm)) values across each cell line are shown in Table 2.
(§3) The selectivity index (SI), calculated as the ratio between the full panel MG_MID60 (μM) of compounds 4, 6, and 9 by their respective subpanels MG_MID of the cell line (μM), was introduced as a quantification tool for the selectivity of each compound in terms of anticancer effect (Table 3).
(§4) Primary anticancer assays were performed according to the NCI protocol, as described elsewhere (see e.g., http://dtp.nci.nih.gov accessed on 1 November 2018). The compounds were added at a single concentration, and the cell cultures were incubated for 48 h. The end point determinations were made with a protein-binding dye, sulforhodamine B (SRB). […] The percentage of growth was evaluated spectrophotometrically versus controls not treated with test agents after 48 h exposure and using SRB protein assay to estimate cell viability or growth. Three antitumor activity dose-response parameters were calculated for each cell line. Furthermore, mean graph midpoints (MG_MID) were calculated for each of the parameters, giving an average activity parameter over all cell lines for the tested compound. For the MG_MID calculation, insensitive cell lines were included with the highest concentration tested.

MDA-MB-435 = assay: NCI-60 screening (SRB); type: cell-based, human; details: five-dose
DU-145 = assay: NCI-60 screening (SRB); type: cell-based, human; details: five-dose
MDA-MB-31/ATCC = assay: NCI-60 screening (SRB); type: cell-based, human; details: five-dose
OVCAR-8 = assay: NCI-60 screening (SRB); type: cell-based, human; details: five-dose
BT-549 = assay: NCI-60 screening (SRB); type: cell-based, human; details: five-dose
CNS cancer = assay: cells; type: cell-based
Excerpt: as §1, §2, §3, §4

SF-268 = assay: NCI-60 screening (SRB); type: cell-based, human; details: five-dose
SK-OV-3 = assay: NCI-60 screening (SRB); type: cell-based, human; details: Homo sapiens, five-dose
RXF 393 = assay: NCI-60 screening (SRB); type: cell-based, human; details: five-dose
[2] = Homo sapiens, read-out: LC50 (the source's name)

Compound: CCN1CCN(C(=O)[C@]23CCC(C)(C)C[C@H]2C2=CC[C@@H]4[C@@]5(C)C/C(=C/c6cccnc6)C(=O)C(C)(C)[C@@H]5CC[C@@]4(C)[C@]2(C)CC3)CC1 [Compound 6]
- GI50 (UACC-62; Homo sapiens): 1280 nM
- CC50 (UACC-62; [2]): 6.23 µM
- TGI (UACC-62): 2.83 µM
- GI50 (HOP-62; Homo sapiens): 1880 nM
- LC50 (HOP-62; Homo sapiens): 7.47 µM
- TGI (HOP-62): 3.75 µM
- TGI (CAKI-1): 11.8 µM
- GI50 (CAKI-1; Homo sapiens): 2080 nM
- CC50 (CAKI-1; [2]): 45.3 µM
- GI50 (RPMI-8226; Homo sapiens): 1030 nM
- CC50 (RPMI-8226; [2]): > 100 µM
- TGI (RPMI-8226): 5.20 µM
- GI50 (HCC-2998; Homo sapiens): 1580 nM
- CC50 (HCC-2998; [2]): 6.17 µM
- TGI (HCC-2998): 3.12 µM
- GI50 (U251; Homo sapiens, U-251, U251, five-dose): 1580 nM
- CC50 (U251; Homo sapiens, U-251, U251, five-dose, read-out: LC50 (the source's name)): 6.13 µM
- Growth % (U251; U251 (CNS cancer), 1 dose 10 µM): −88.15%
- TGI (U251; U251, five-dose): 3.11 µM
- GI50 (SN12C; Homo sapiens): 1220 nM
- CC50 (SN12C; [2]): 5.3 µM
- TGI (SN12C): 2.54 µM
- GI50 (PC-3; Homo sapiens): 1000 nM
- CC50 (PC-3; [2]): 7.78 µM
- TGI (PC-3): 2.79 µM
- GI50 (HOP-92; Homo sapiens): 1060 nM
- CC50 (HOP-92; [2]): 10.1 µM
- TGI (HOP-92): 3.26 µM
- GI50 (IGROV1; Homo sapiens, IGROV-1, five-dose): 1910 nM
- CC50 (IGROV1; Homo sapiens, IGROV-1, five-dose, read-out: LC50 (the source's name)): 9.1 µM
- TGI (IGROV1; five-dose): 4.16 µM
- GI50 (SK-MEL-28; Homo sapiens): 1480 nM
- CC50 (SK-MEL-28; [2]): 5.41 µM
- TGI (SK-MEL-28): 2.83 µM
- GI50 (SK-MEL-2; Homo sapiens): 1930 nM
- CC50 (SK-MEL-2; [2]): 8.16 µM
- TGI (SK-MEL-2): 3.96 µM
- GI50 (OVCAR-5; Homo sapiens): 1560 nM
- CC50 (OVCAR-5; [2]): 7.19 µM
- TGI (OVCAR-5): 3.35 µM
- GI50 (SK-MEL-5; Homo sapiens, SK-MEL-5, five-dose): 1630 nM
- CC50 (SK-MEL-5; Homo sapiens, SK-MEL-5, five-dose, read-out: LC50 (the source's name)): 5.54 µM
- Growth % (SK-MEL-5; SK-MEL-5, 1 dose 10 µM): −91.03%
- TGI (SK-MEL-5; SK-MEL-5, five-dose): 3.00 µM
- cell death (SK-MEL-5; SK-MEL-5 melanoma, 1 dose 10 µM): 88.15%
- GI50 (MOLT-4; Homo sapiens): 1430 nM
- CC50 (MOLT-4; [2]): > 100 µM
- TGI (MOLT-4): >100 µM
- GI50 (UACC-257; Homo sapiens): 1610 nM
- CC50 (UACC-257; [2]): 33.8 µM
- TGI (UACC-257): 4.29 µM
- Positive Cytostatic Effect (cell lines with percent growth 0 to 50 / total) ([1]; 1 dose 10 µM): 30/60
- Positive Cytotoxic Effect (cell lines with percent growth <0 / total) ([1]; 1 dose 10 µM): 4/60
- GI50 ([1]; Homo sapiens, five-dose, bound, read-out: GI50 against all human tumor cells): < 4000 nM
- GI50 ([1]; Homo sapiens, mean graph midpoint, full panel, five-dose, read-out: GI50 MG_MID60): 1520 nM
- CC50 ([1]; Homo sapiens, mean graph midpoint, full panel, five-dose, read-out: LC50 MG_MID60): 32.4 µM
- activity at 10 µM ([1]; Homo sapiens, 1 dose 10 µM, read-out: Mean Growth, %): 23.4%
- activity at 10 µM ([1]; Homo sapiens, 1 dose 10 µM, read-out: Range of Growth, %): -91 to 83.8%
- TGI MG_MID60 ([1]; mean graph midpoint, full panel, five-dose): 6.29 µM
- GI50 ([1]; mean graph midpoint, full panel, five-dose, read-out: GI50 MG_MID60): 1530 nM
- selectivity class ([1]; toward some individual cell lines at the LC50 level): moderate selectivity (Ratios between 3 and 6 are indicators of moderate selectivity)
- GI50 (MDA-MB-435; Homo sapiens): 1480 nM
- CC50 (MDA-MB-435; [2]): 6.52 µM
- TGI (MDA-MB-435): 3.11 µM
- GI50 (DU-145; Homo sapiens): 1830 nM
- CC50 (DU-145; [2]): 8.23 µM
- TGI (DU-145): 3.88 µM
- GI50 (MDA-MB-31/ATCC; Homo sapiens): 1400 nM
- CC50 (MDA-MB-31/ATCC; [2]): 5.78 µM
- TGI (MDA-MB-31/ATCC): 2.84 µM
- GI50 (OVCAR-8; Homo sapiens): 2140 nM
- CC50 (OVCAR-8; [2]): > 100 µM
- TGI (OVCAR-8): 5.54 µM
- GI50 (BT-549; Homo sapiens): 1470 nM
- CC50 (BT-549; [2]): 5.66 µM
- TGI (BT-549): 2.88 µM
- TGI MG_MID (CNS cancer; CNS cancer subpanel, five-dose): 3.50 µM
- SI (TGI) (CNS cancer; CNS cancer, MG_MID60/subpanel MG_MID): 1.80
- GI50 (CNS cancer; Homo sapiens, CNS cancer subpanel, five-dose, read-out: GI50 MG_MID): 1630 nM
- CC50 (CNS cancer; Homo sapiens, CNS cancer subpanel, five-dose, read-out: LC50 MG_MID): 22.1 µM
- GI50 (SF-268; Homo sapiens): 1590 nM
- CC50 (SF-268; [2]): 85.7 µM
- TGI (SF-268): 4.79 µM
- GI50 (SK-OV-3): 4.19 µM
- CC50 (SK-OV-3; read-out: LC50 (the source's name)): 76.1 µM
- GI50 (RXF 393; Homo sapiens): 1420 nM
- CC50 (RXF 393; [2]): 5.41 µM
- TGI (RXF 393): 2.77 µM
